Patent US11203015B2, “Microfluidic device” (TECHNISCHE UNIVERSITAT WIEN, priority 2016, dated 2021)

Test system: human umbilical vain endothelial cells (HUVECs)
Assay: microfluidic wound healing assay (membrane deflection, cell depletion)
Format: cell-based
Procedure: Lentivirally transduced GFP HUVEC (human umbilical vain endothelial cells) were obtained from Olaf pharmaceuticals (USA) and cultivated in gelatin coated 25 cm^2 cell culture flasks and maintained in EGM-2 (Lonza, CC3156) supplemented with EGM-2 SingleQuots (Lonza, CC4176). The coating was performed using 1% gelatin solution (9000-70-8, Sigma Aldrich) in DPBS and was incubated for 30 min at 37° C. For on chip experiments the medium was supplemented with 1% hepes buffer (J848, AMRESCO). For the coating experiment 500 mM NaOH was inserted to the microfluidic channels, incubated for 15 min at RT, following rinsing with PBS and a protein mixture comprising 10 μg/m fibronectin (Sigma Aldrich, F4759) and […] fibrinogen conjugated with Alexa Fluor 488 (Thermo Fisher, F13191) was incubated for 1 h at 37° C.
The microfluidic device of example 1 was placed on a heating plate equipped with a temperature controller. The temperature of the plate was adjusted to reach 37° C. on top of the microdevice. For the on-chip wound healing assays the microchip was first sterilized using 70% ethanol, rinsed using a 1 M NaOH solution for 15 min and washed with PBS prior coating using a 1% gelatin solution for 1 h. Cell suspension of desired concentration was prepared and inserted into microchannels using plastic syringe (1 ml). Cells were allowed to adhere for 1 h in the absence of fluid flow followed by a constant medium perfusion of 4 μl/min using syringe pump. As soon as the cells were grown confluent (typically 1 to 2 days) cells were mechanically damaged (“squeezed”) by the PDMS membrane, which bended under force towards the cell layer. Bending was induced by manual increase of pressure load to 150 kPa (differential pressure) followed by immediate release to 0 kPa using a pressure controller. To further remove residual cell debris from the substrate multiple membrane deflections (minimum of three times) were performed. During the mechanical damaging the medium perfusion was always kept on.
The fluorescence pictures were transformed to grey scale, the contrast increased and the leading edge of the wound selected using the Magic wand tool. This image was then processed using Image) by determining the cell-free area with the tool Analyze Particles.
Next the ability to create defined and reproducible cell depletion zones within a confluent cell monolayer was evaluated using the membrane deflection method. In a series of experiments endothelial cells were seeded and cultivated in a microfluidic channel for a minimum period of 6 hours prior cell removal. During the entire wound healing assay including the cell depletion procedure the applied flow rate of 3 μl/min was kept constant to ensure complete removal of cell debris following membrane compression. In addition to maintaining an intact coating, a further aspect that may also influence cell migration is associated with the release of biochemical factors from viable but injured cells at the edge of the wounding area. To investigate whether cells located in the adjacent vicinity of the cell-free area are injured by membrane compression, dead staining using ethidium homodimer-1 was conducted in subsequent experiments. Results indicated the presence of red fluorescently labelled DNA debris present in the cell-free area following 1 h after wound induction. More importantly, none of the leading edge cells appeared damaged by the membrane compression, since only DNA from lysed cells inside the wound remained on the substrate. […]

[1] = 10 μg/ml Mitomycin-C, one hour exposure, flow rate 3 μl/min, after 6 h

## CO[C@@]12[C@H](COC(N)=O)C3=C(C(=O)C(C)=C(N)C3=O)N1C[C@@H]1N[C@@H]12 [Mitomycin-C]
10 μg/ml Mitomycin-C, one hour exposure
  wound closure observed after: 24 h
[1]
  cell-free area, times larger compared to TNF-α treated cells: 1.5
  cell-free area, times larger compared to control experiments: 5
10 μg/ml Mitomycin-C, after 24 h, compared to control
  cell density within the wounded area: visibly reduced

## TNF-α
1 ng/ml TNF-α in medium immediately after wound induction and maintained, 6 h post wounding
  remaining cell-free area, factor larger than control experiments: 3.3
